Measurements as given in patent EP4722228A1, “NEW COMPOUND TARGETING MUSK AND USE THEREOF” (The University of Tokyo, priority 2023, dated 2024).
Numbered stars: 1 amine (or outer) side, 2 acyl side, 3 side chain; on linkers, the order of the positions; unused ones are H or OH. Bridge positions count the residues as written; N and C are the ends. Square brackets hold non-standard residues; d marks the D form. Peptide text beside a SMILES is read from it. I, II: the chains in the order shown. X1 = O=C(CCN1C(=O)CC([*:1])C1=O)NCCOCCOCCOCCOCCOCCOCCOCCOCCOCCOCCOCCNC(=O)CCN1C(=O)CC([*:2])C1=O

Columns and labels:
[1] = tested on: C2C12 myotubes (Agrin-induced AChR clusters); assay: Agrin-induced AChR clusters in myotubes with tyrosine kinase inhibitors; format: cell-based, mouse; conditions: 10 pM recombinant rat agrin, inhibitor added simultaneously, 20 hours; low concentration range of 1 nM
Description: The mouse myoblast-derived cell line C2C12 (CRL-1772) was purchased from the American Type Culture Collection and used. For subculture, Dulbecco's Modified Eagle Medium (DMEM, high glucose, GlutaMAX supplement, pyruvate; GIBCO) supplemented with 20% fetal bovine serum (FBS; GIBCO) was used. For passage, after the culture medium was removed by suction, adherent cells were washed with phosphate buffered saline (PBS(-)), and HBSS (GIBCO) containing no Mg^2+ and Ca^2+ and containing 0.25% trypsin and 1 mM ethylenediaminetetraacetic acid was added, and the mixture was reacted in a CO2 incubator (37°C, 5% CO2) for 5 minutes. The detached cells were collected and then centrifuged at 1000 rpm at 4°C for 5 minutes (Sorvall X4R Pro, Thermo Fisher Scientific Inc.). After the supernatant was removed by suction, the cells were suspended in fresh culture medium, and 100 µL was seeded into a 96-well plate (BioCoat Collagen I 96-well Black/Clear plate, Corning Inc.) and cultured in a CO2 incubator (37°C, 5% CO2) until reaching confluence, typically within 72 hours. Subsequently, the culture medium was removed and the first medium change was performed with DMEM containing 2% horse serum (GIBCO) for induction of myotube cell differentiation.
A differentiation medium supplemented with an appropriate amount of the homodimer of the cyclic peptide MuSK7 (MuSK7 PEG11 dimer) was prepared in advance in a 96-well plate (Nunclon Δ Surface, 167008, Nunc), and used at 100 µL/well at the time of the second medium change in the process of inducing differentiation into myotubes. 20 hours after addition of the homodimer of the cyclic peptide MuSK7, the medium was removed, the cells were washed with PBS(-), and then fixed at room temperature for 15 minutes with PBS(-) containing 4% formaldehyde. After washing several times with 1% BSA-PBS(-), fluorescently labeled α-bungarotoxin (α-Btx, Alexa Fluor 488 conjugate; Invitrogen) was added to 1% BSA-PBS(-) at a final concentration of 100 nM, and after adding this to the wells, the mixture was allowed to stand at room temperature under a light-shielded condition for 30 minutes. After washing the cells several times with 1% BSA-PBS(-), 100 µL of PBS(-) was added to each well, and fluorescence observation was performed using a fluorescence imaging device. For observation of fluorescently labeled AChR clusters, an EVOS M7000 imaging system (Thermo Fisher Scientific Inc.) was used. During fluorescence image observation, a 10× objective lens was used, and tiff images of an area equivalent to 1 mm^2 were obtained. […] The average number of AChR clusters counted from the three tiff images derived from the same well was calculated and drawn on a graph.
MuSK inhibitor candidates were searched in the KinaseNET database (http://www.kinasenet.ca/) published as an open resource by Kinexus Bioinformatics Corporation (Canada), and three tyrosine kinase inhibitors (AST-487, Foretinib, and Sorafenib) were identified. Next, groups were prepared in which 10 pM recombinant rat agrin protein (550-AG, R&D Systems) derived from C2C12 myotubes was added alone, or in which each tyrosine kinase inhibitor (3 nM) was added simultaneously, and detection and observation of Agrin-induced AChR clusters were performed 20 hours after compound addition (five types, Crizotinib, Linifanib, AST-1306, Dovitinib, and BMS-754807, were used as non-MuSK inhibitory tyrosine kinase inhibitors).

[2] = tested on: C2C12 myotubes (AChR clusters); assay: Induction of AChR clusters in myotube cells by the MuSK7 homodimer, with or without AST-487; format: cell-based, mouse; conditions: in the presence of AST-487
Description: (§1) The mouse myoblast-derived cell line C2C12 (CRL-1772) was purchased from the American Type Culture Collection and used. For subculture, Dulbecco's Modified Eagle Medium (DMEM, high glucose, GlutaMAX supplement, pyruvate; GIBCO) supplemented with 20% fetal bovine serum (FBS; GIBCO) was used. For passage, after the culture medium was removed by suction, adherent cells were washed with phosphate buffered saline (PBS(-)), and HBSS (GIBCO) containing no Mg^2+ and Ca^2+ and containing 0.25% trypsin and 1 mM ethylenediaminetetraacetic acid was added, and the mixture was reacted in a CO2 incubator (37°C, 5% CO2) for 5 minutes. […]
A differentiation medium supplemented with an appropriate amount of the homodimer of the cyclic peptide MuSK7 (MuSK7 PEG11 dimer) was prepared in advance in a 96-well plate (Nunclon Δ Surface, 167008, Nunc), and used at 100 µL/well at the time of the second medium change in the process of inducing differentiation into myotubes. […] After washing the cells several times with 1% BSA-PBS(-), 100 µL of PBS(-) was added to each well, and fluorescence observation was performed using a fluorescence imaging device. […] During fluorescence image observation, a 10× objective lens was used, and tiff images of an area equivalent to 1 mm^2 were obtained. […] The average number of AChR clusters counted from the three tiff images derived from the same well was calculated and drawn on a graph. […]

[3] = tested on: mouse myoblast-derived cell line C2C12; assay: Induction of AChR clusters in myotube cells and quantitative analysis (fluorescent α-bungarotoxin); format: cell-based; conditions: 20 hours after addition
Description: as §1
After washing several times with 1% BSA-PBS(-), fluorescently labeled α-bungarotoxin (α-Btx, Alexa Fluor 488 conjugate; Invitrogen) was added to 1% BSA-PBS(-) at a final concentration of 100 nM, and after adding this to the wells, the mixture was allowed to stand at room temperature under a light-shielded condition for 30 minutes. After washing the cells several times with 1% BSA-PBS(-), 100 µL of PBS(-) was added to each well, and fluorescence observation was performed using a fluorescence imaging device. […] During fluorescence image observation, a 10× objective lens was used, and tiff images of an area equivalent to 1 mm^2 were obtained. […] The average number of AChR clusters counted from the three tiff images derived from the same well was calculated and drawn on a graph.

human MuSK = target: T1, human MuSK (Homo sapiens, UniProt O15146); assay: SPR binding activity test to human MuSK (Biacore); conditions: human MuSK, peptide homodimers
T1 construct: DNA corresponding to the extracellular portion (amino acids 1-493) was amplified by a PCR method; made in house; host or cells: Expi293F cells
T1 sequence (O15146 24-493): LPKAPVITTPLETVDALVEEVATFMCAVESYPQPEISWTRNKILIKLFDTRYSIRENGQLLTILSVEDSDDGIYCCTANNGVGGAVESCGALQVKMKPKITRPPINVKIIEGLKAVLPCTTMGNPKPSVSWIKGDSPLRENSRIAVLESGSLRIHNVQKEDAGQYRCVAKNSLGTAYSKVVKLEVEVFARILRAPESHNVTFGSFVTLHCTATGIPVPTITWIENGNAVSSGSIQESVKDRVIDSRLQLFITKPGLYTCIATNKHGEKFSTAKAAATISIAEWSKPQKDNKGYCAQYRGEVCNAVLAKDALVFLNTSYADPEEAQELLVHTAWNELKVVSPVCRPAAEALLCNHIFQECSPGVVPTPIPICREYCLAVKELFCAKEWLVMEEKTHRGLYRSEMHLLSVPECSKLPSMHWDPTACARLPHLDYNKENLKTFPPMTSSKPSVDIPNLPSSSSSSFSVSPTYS
Experimental: The human MuSK protein (extracellular portion) was prepared as a recombinant protein as follows. Using a Flexi clone (FXC31275, Promega Corporation) encoding Human MuSK isoform 1 precursor (NCBI Reference Sequence: NP_005583.1) as a template, DNA corresponding to the extracellular portion (amino acids 1-493) was amplified by a PCR method. XhoI and EcoRI restriction enzyme recognition sequences were added to both the 5' and 3' ends of the amplified DNA sequence, and these were used for insertion into the multiple cloning site of a pCAG-Neo hIgG1-Fc plasmid (Fujifilm Wako Pure Chemical Corporation). This plasmid (pCAG-Neo hMuSK-Fc) enables expression of a chimeric protein of the secretory human MuSK extracellular portion and human IgG1 Fc (hMuSK-Fc; molecular weight of approximately 200 kDa) in animal cells. In practice, ExpiFectamine 293 reagent (Invitrogen) was used to transfect the pCAG-Neo hMuSK-Fc plasmid into Expi293F cells (Invitrogen), and shaking culture was carried out (for 6 days) in an incubator containing 8% CO2. Next, the culture supernatant was collected, centrifuged, and sterilized by filtration through a 0.22 µm filter. The obtained culture supernatant was subjected to Protein G purification, and finally, a purified hMuSK-Fc sample with 99.96% purity (AKTA-FPLC analysis) was obtained.
The strength of binding between MuSK and the cyclic peptides was evaluated by quantitatively measuring the binding kinetics (binding affinity (dissociation constant) KD) of the cyclic peptides to MuSK immobilized on a sensor chip via an Fc tag, using surface plasmon resonance (SPR).
According to the standard immobilization protocol provided by the manufacturer, Fc-tagged human/mouse/rat MuSK was immobilized on a Protein G chip or a Protein A chip (Cytiva). A running buffer for the monomer/dimer peptides contained 0.010 M phosphate, 0.14 M NaCl, 0.0027 M KCl, 0.05% (v/v) Tween 20, and 0.1% (v/v) DMSO. A running buffer for the monomer/dimer U-bodies contained 0.010 M phosphate, 0.14 M NaCl, 0.0027 M KCl, and 0.05% (v/v) Tween 20. A series of concentrations of each monomer peptide, dimer peptide, monomer U-body, and dimer U-body was injected as analytes. A 1:1 binding fitting analysis was applied using Biacore evaluation software, and ka, kd, and KD values were determined.
Fc-tagged human MuSK was prepared according to the procedure described in Example 1(1). In addition, Fc-tagged mouse MuSK was used by expressing a nucleotide sequence encoding the Fc-tagged mouse MuSK extracellular domain (SEQ ID NO: 34). In addition, Fc-tagged rat MuSK was used as a chimeric protein of rat MuSK and an Fc protein, namely, Recombinant Rat MuSK Fc Chimera Protein (catalog number: 9847-MK-050, R&D Systems).
The affinity of the U-bodies and their complexes obtained as described above for MuSK of human, rat, and mouse was evaluated (binding activity test). The test was carried out according to the procedure described in Example 1(3). However, for the complexes of U-bodies, surface plasmon resonance (SPR) analysis was carried out using a Biacore 8K (Cytiva).

Compound	Agrin-induced AChR cluster formation [1]	AChR cluster formation by the homodimer of the cyclic peptide MuSK7 [2]	number of AChR clusters ([3]; compound concentration exceeded 1 µM)	number of AChR clusters ([3]; concentration range from the pM order to 1 µM)	koff (human MuSK)	kon (human MuSK)	Kd (human MuSK; read-out: Kd)
CCN1CCN(Cc2ccc(NC(=O)Nc3ccc(Oc4cc(NC)ncn4)cc3)cc2C(F)(F)F)CC1 [AST-487]	no AChR cluster formation was observed	no AChR clusters were detected	–	–	–	–	–
CC(C)C[C@@H]1NC(=O)[C@H](CO)NC(=O)[C@H](C)NC(=O)[C@H](C(C)C)NC(=O)[C@H](C(C)C)NC(=O)[C@H](CC(N)=O)NC(=O)[C@H]([C@@H](C)O)NC(=O)[C@H](Cc2c[nH]cn2)NC(=O)[C@H](Cc2ccc(O)cc2)NC(=O)[C@H](CO)NC(=O)[C@@H]2CCCN2C(=O)[C@@H](Cc2ccc(O)cc2)NC(=O)CSC[C@@H](C(=O)N[C@@H](CSC2CC(=O)N(CCC(=O)NCCOCCOCCOCCOCCOCCOCCOCCOCCOCCOCCOCCNC(=O)CCN3C(=O)CC(SC[C@H](NC(=O)[C@@H]4CSCC(=O)N[C@H](Cc5ccc(O)cc5)C(=O)N5CCC[C@H]5C(=O)N[C@@H](CO)C(=O)N[C@@H](Cc5ccc(O)cc5)C(=O)N[C@@H](Cc5c[nH]cn5)C(=O)N[C@@H]([C@@H](C)O)C(=O)N[C@@H](CC(N)=O)C(=O)N[C@@H](C(C)C)C(=O)N[C@@H](C(C)C)C(=O)N[C@@H](C)C(=O)N[C@@H](CO)C(=O)N[C@@H](CC(C)C)C(=O)N[C@@H](CCCCN)C(=O)N[C@@H](CCCNC(=N)N)C(=O)N4)C(N)=O)C3=O)C2=O)C(N)=O)NC(=O)[C@H](CCCNC(=N)N)NC(=O)[C@H](CCCCN)NC1=O (stereo partly shown) [MuSK7 PEG11 dimer] (I: {CH2CO}-[dY]PSYHTNVVASLKRCC-NH2 / II: {CH2CO}-[dY]PSYHTNVVASLKRCC-NH2; linker I:16-II:16 via X1; thioether I:N-I:15, II:N-II:15)	–	–	conversely tended to decrease	increased in a dose-dependent manner	0.00051 s⁻¹	390000 M⁻¹ s⁻¹	1.3 nM
